Test results published in patent US11939351B2, “Amorphous mixture comprising a neutral mono- or oligosaccharide and an acidic non-carbohydrate component” (GLYCOM A/S, priority 2017, dated 2024).
Where two headings read alike, the source gives them in different places.

Columns and labels:
[1] = Forced storage stability of 2′-FL and DFL mixture samples at 60° C. and 80° C., analysed by HPAEC (Example 2); type: physicochemical
Method: One gram of each sample, separately, was put into a 4 ml glass vial and closed with screw lid containing teflon […]. The 8-week storage sample was put into a 60° C. oven, followed by the 4-week and the 2-week samples 4 and 6 weeks later, respectively), so the incubation of all samples ended in the same time. Similar pattern of experimental design was followed with the samples to be measured at 80° C. (4-week, 2-week and 1-week samples). The samples were kept in a freezer until they were put into the oven at a given time. Standards were kept in a freezer until analysis. The stability samples and the standards were analysed by HPAEC.

[2] = type: physicochemical
Excerpt: This means that an amorphous 2′-FL according to the present invention, the pH of the 5 w/w % aqueous solution of which is around 3.5-4.5, has a slightly shorter shelf-life than that for an amorphous 2′-FL having a pH of 4.5-5.8. […] In this regard it can be concluded that a fucosylated neutral HMO other than 2′-FL is hydrolytically as stable as a non-fucosylated neutral HMO.

[3] = in the acidic samples (pH = 4.5)
[4] = in the neutral sample (pH = 7.0)

SMILES | preferred pH range in which no substantial hydrolysis and rearrangement occur ([1]; estimated from the Example 2 data) | hydrolysis (into fucose and lactose) [1, 3] | hydrolysis (into fucose and lactose) [1, 4] | hydrolysis to fucose and lactose ([2]; at a pH around 4.0-4.5) | hydrolysis to fucose and lactose ([2]; at around a pH of 3.5) | hydrolytic stability [2]
C[C@@H]1O[C@@H](O[C@H]2[C@H](O[C@H]3[C@H](O)[C@@H](O)C(O)O[C@@H]3CO)O[C@H](CO)[C@H](O)[C@@H]2O)[C@@H](O)[C@H](O)[C@@H]1O (some centres unmarked) [2′-FL, 2′-fucosyllactose] | 5.2-5.8 | slight hydrolysis | did not occur | still detectable | low degree of hydrolysis | –
C[C@@H]1O[C@@H](O[C@H]2[C@H](O[C@H]3[C@H](O[C@@H]4O[C@@H](C)[C@@H](O)[C@@H](O)[C@@H]4O)[C@@H](O)C(O)O[C@@H]3CO)O[C@H](CO)[C@H](O)[C@@H]2O)[C@@H](O)[C@H](O)[C@@H]1O (some centres unmarked) [DFL, difucosyllactose] | – | did not undergo hydrolysis | did not undergo hydrolysis | – | – | hydrolytically stabile
